The target of one assay is T1, AuroraA-TPX2 (Homo sapiens, UniProt O14965).
T1 construct: 20 µL of AuroraA-TPX2 KD GST; GST
T1 sequence (O14965 133-383 limits assumed): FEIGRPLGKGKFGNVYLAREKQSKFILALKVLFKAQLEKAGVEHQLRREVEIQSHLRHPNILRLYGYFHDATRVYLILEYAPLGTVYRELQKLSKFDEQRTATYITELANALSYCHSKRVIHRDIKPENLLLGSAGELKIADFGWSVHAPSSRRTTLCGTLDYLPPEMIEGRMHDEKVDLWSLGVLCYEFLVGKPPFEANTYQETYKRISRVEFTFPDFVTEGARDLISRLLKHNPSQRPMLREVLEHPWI
T1 sequence (Q9ULW0 1-43 partner limits assumed): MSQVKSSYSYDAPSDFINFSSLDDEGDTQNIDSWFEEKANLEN
The assay can be described thus: AuroraA-TPX2 Homogeneous Time Resolved Fluorescent (HTRF) kinase assay. Format: biochemical. Particulars: average; given as class symbols; read-out: AurA/TP X2_ IC50_IP (Avg). In short, it runs like this:
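Aurora-A/TPX2 phosphorylates biotinylated PLK peptide (about 1 µM) with ATP for about 120 min in 60 mM HEPES pH 7.5, 10 mM MgCl2, 2 mM DTT. EDTA quench, overnight equilibration with Eu-anti-phosphoPLK antibody and SA-APC; HTRF read at 615/655 nm after 320 nm excitation.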
(Time-resolved FRET reads energy transfer from a long-lived donor to a nearby acceptor.)

In another assay the target is T2, AuroraB (Homo sapiens, UniProt Q96GD4).
T2 construct: 20 µL of AuroraB FL His; His
T2 sequence (Q96GD4 whole entry): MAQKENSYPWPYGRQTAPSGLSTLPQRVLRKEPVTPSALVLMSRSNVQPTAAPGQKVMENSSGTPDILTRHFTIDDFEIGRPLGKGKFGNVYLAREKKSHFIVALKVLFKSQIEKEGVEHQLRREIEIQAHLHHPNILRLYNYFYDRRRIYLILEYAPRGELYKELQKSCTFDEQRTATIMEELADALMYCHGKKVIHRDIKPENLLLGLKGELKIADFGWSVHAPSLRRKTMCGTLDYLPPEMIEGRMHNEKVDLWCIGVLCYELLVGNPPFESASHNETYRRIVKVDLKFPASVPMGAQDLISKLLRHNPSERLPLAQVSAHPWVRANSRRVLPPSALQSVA
The assay can be described thus: AuroraB Homogeneous Time Resolved Fluorescent (HTRF) kinase assay. Type of assay: biochemical. Particulars: average; given as class symbols; read-out: AurB_ _IC50_IP (Avg). An outline of the steps: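 Full-length His-tagged AuroraB (400 pM) phosphorylates 0.1 µM biotinylated Histone H3 with 23 µM ATP (Km(app)) in HEPES pH 7.5 with Mg/Mn, about 90 min. EDTA-quenched; Eu-anti-phosphoHistoneH3 and SA-APC HTRF, 655/615 nm ratio as phosphorylation.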

The values below come from patent EP1984353B1, “AURORA KINASE MODULATORS AND METHOD OF USE” (Amgen, Inc, priority 2006, dated 2007).

On to `Cc1ccnc(-c2nnc(Nc3ccc(Oc4ncccc4-c4ccnc(NCCCN5CCOCC5)n4)cc3)c3ccccc23)c1` [compound 412, 4-(4-methyl-2-pyridinyl)-N-(4-((3-(2-((3-(4-morpholinyl)propyl)amino)-4-pyrimidinyl)-2-pyridinyl)oxy)phenyl)-1-phthalazinamine], for which the IC50 is 100 to 500 nM on AuroraA-TPX2 and at most 100 nM at AuroraB.

As for `CCc1cc(-c2ccccc2)nnc1Nc1ccc(Oc2ncccc2-c2ccnc(NCCCN3CCN(C)CC3)n2)nc1` [compound 449, 4-ethyl-N-(6-((3-(2-((3-(4-methyl-1-piperazinyl)propyl)amino)-4-pyrimidinyl)-2-pyridinyl)oxy)-3-pyridinyl)-6-phenyl-3-pyridazinamine], the IC50 on AuroraA-TPX2 and at AuroraB was at most 100 nM in each case.

With `CCc1cc(-c2ccccc2)nnc1Nc1ccc(Oc2ncccc2-c2ccnc(NCCCN3CCCCC3)n2)nc1` [compound 450, 4-ethyl-6-phenyl-N-(6-((3-(2-((3-(1-piperidinyl)propyl)amino)-4-pyrimidinyl)-2-pyridinyl)oxy)-3-pyridinyl)-3-pyridazinamine], the figures for the IC50 on AuroraA-TPX2 and on AuroraB were 500 to 2500 nM and at most 100 nM, respectively.

With `CCc1cc(-c2ccccc2)nnc1Nc1ccc(Oc2ncccc2-c2ccnc(NCCCN3CCNCC3)n2)nc1` [compound 451, 4-ethyl-6-phenyl-N-(6-((3-(2-((3-(1-piperazinyl)propyl)amino)-4-pyrimidinyl)-2-pyridinyl)oxy)-3-pyridinyl)-3-pyridazinamine], the figures for the IC50 on AuroraA-TPX2 and at AuroraB were 100 to 500 nM and at most 100 nM, respectively.

For `FC1CCCN(CCCNc2nccc(-c3cccnc3Oc3ccc(Nc4nnc(-c5ccccc5)c5ccccc45)cc3)n2)C1` (centres unmarked) [compound 452, N-(4-((3-(2-((3-(3-fluoro-1-ptperidinyl)propyl)amino)-4-pyrimidinyl)-2-pyridinyl)oxy)phenyl)-4-phenyl-1-phthalazinamine], the IC50 on AuroraA-TPX2 and on AuroraB was at most 100 nM each time.

As to `FC1(F)CCCN(CCCNc2nccc(-c3cccnc3Oc3ccc(Nc4nnc(-c5ccccc5)c5ccccc45)cc3)n2)C1` [compound 453, N-(4-((3-(2-((3-(3,3-difluoro-1-piperidinyl)propyl)amino)-4-pyrimidinyl)-2-pyridinyl)oxy)phenyl)-4-phenyl-1-phthalazinamine], the IC50 at AuroraA-TPX2 and at AuroraB was at most 100 nM in each case.

Turning to `COc1cccc(-c2nnc(Nc3ccc(Oc4ncccc4-c4ccnc(NCCCN5CCCCC5)n4)cc3)c3ccccc23)n1` [compound 454, 4-(6-(methyloxy)-2-pyridinyl)-N-(4-((3-(2-((3-(1-piperidinyl)propyl)amino)-4-pyrimidinyl)-2-pyridinyl)oxy)phenyl)-1-phthalazinamine], the IC50 at AuroraA-TPX2 and at AuroraB was at most 100 nM in each case.

For `COc1cccc(-c2nnc(Nc3ccc(Oc4ncccc4-c4ccnc(NCCCN5CCCC5)n4)cc3)c3ccccc23)n1` [compound 455, 4-(6-(methyloxy)-2-pyridinyl)-N-(4-((3-(2-((3-(1-pyrrolidinyl)propyl)amino)-4-pyrimidinyl)-2-pyridinyl)oxy)phenyl)-1-phthalazinamine], the IC50 at AuroraA-TPX2 and on AuroraB was at most 100 nM throughout.

On to `CCc1cc(-c2ccccc2)nnc1Nc1ccc(Oc2ncccc2-c2ccnc(NCCCN3CCN(C)CC3)n2)cc1` [compound 456, 4-ethyl-N-(4-((3-(2-((3-(4-methyl-1-piperazinyl)propyl)amino)-4-pyrimidinyl)-2-pyridinyl)oxy)phenyl)-6-phenyl-3-pyridazinamine], for which the IC50 at AuroraA-TPX2 and at AuroraB was at most 100 nM in each case.

On to `CCc1cc(-c2ccccc2)nnc1Nc1ccc(Oc2ncccc2-c2ccnc(NCCCN3CCNCC3)n2)cc1` [compound 457, 4-ethyl-6-phenyl-N-(4-((3-(2-((3-(1-piperazinyl)propyl)amino)-4-pyrimidinyl)-2-pyridinyl)oxy)phenyl)-3-pyridazinamine], for which the IC50 on AuroraA-TPX2 and at AuroraB was at most 100 nM each time.
